Where a SMILES comes first, the peptide text is derived from it. [ ]: non-standard residue; d: D form. The star is where a group is joined. Biotin = O=C1N[C@H]2[C@H](CS[C@H]2CCCCC(=O)*)N1; Phe(3,4-Cl2) = N[C@@H](Cc1ccc(Cl)c(Cl)c1)C(=O)O; Lys(Me3) = C[N+](C)(C)CCCC[C@H](N)C(=O)O; Phe(4-Me) = Cc1ccc(C[C@H](N)C(=O)O)cc1; Palmitoyl = CCCCCCCCCCCCCCCC(=O)*; Ahp = NCCCCCCC(=O)O; βAla = NCCC(=O)O
Assays:
Format in all cases: cell-based, Human
[1] = test system: Elastin (ELN); experiment: ELISA: effect of increasing the content of Elastin in fibroblasts; parameters: Effect of increasing the content of Elastin in the fibroblasts: unit not given here; conditions: 1 µM; for Effect of increasing the content of Elastin in the fibroblasts: 24 h incubation, ELISA, blank control (BC) 756.52; for increase in the content of Elastin: in words, compared to the BC, 24 h, fibroblasts
Procedure: (§1) B. Effects of increasing the contents of Collagen I (type I collagen), hyaluronic acid (HA), and Elastin (ELN) in fibroblasts
(§2) Test materials: Human-derived fibroblasts (Guangdong BioCell Biotechnology Co., Ltd., Lot No. Fb20081902), DMEM culture medium (Gibco, 23042301, expiration date 230522), PBS (Solarbio, P1010), TGF-β1 (Peprotech, 230504), Collagen I ELISA Kit (Cusabio, B21025824), Elastin ELISA Kit (Abcam, GR3446070-2), HA ELISA Kit (RD, P325066), CO2 incubator (Thermo, 150I), super-clean bench (AIRTECH, SW-CJ-1F), and microplate reader (BioTek, Epoch).
(§3) Test methods: • 1) Inoculation: After cell resuscitation, the cells were inoculated into 6-well plates when the plating rate reached around 60%, and were incubated overnight in an incubator (37°C, 5% CO2). • 2) Formulation of solutions: The linear peptide compounds in the sample groups, and PC2 (Biotinoyl-GHK, [drawing 69] ) and PC3 ( [drawing 70] ) in the positive control group were all at the concentration of 1 µM, and the test substance working solutions were formulated. • 3) Administration: When the cell plating rate in the 6-well plates reached 40% to 60%, administration was performed at 2 mL per well. Three duplicate wells were set for each group. Incubation was performed in an incubator (37°C, 5% CO2) for 24 h. • 4) ELISA assay: The ELISA assays were performed according to the instructions of the respective ELISA kits, with the detection indicators being effect of increasing the content of Collagen I in the fibroblasts, effect of increasing the content of HA in the fibroblasts, and effect of increasing the content of Elastin in the fibroblasts, respectively.

[2] = test system: Collagen I (type I collagen); experiment: ELISA: effect of increasing the content of Collagen I in fibroblasts; parameters: Effect of increasing the content of Collagen I in the fibroblasts: unit not given here; conditions: 1 µM, 24 h; for Effect of increasing the content of Collagen I in the fibroblasts: human-derived fibroblasts, ELISA, blank control BC = 35.6; for increase in the content of type I collagen (Collagen I): in words, compared to the BC, fibroblasts
Procedure: as §1, §2, §3

[3] = test system: hyaluronic acid (HA); experiment: ELISA: effect of increasing the content of HA in fibroblasts; parameters: Effect of increasing the content of HA in the fibroblasts: unit not given here; conditions: 1 µM, 24 h; for Effect of increasing the content of HA in the fibroblasts: human-derived fibroblasts, ELISA, blank control BC = 1402.44; for increase in the content of hyaluronic acid (HA): in words, compared to the BC, fibroblasts
Procedure: as §1, §2, §3

SMILES | Effect of increasing the content of Elastin in the fibroblasts [1] | increase in the content of Elastin [1] | Effect of increasing the content of Collagen I in the fibroblasts [2] | increase in the content of type I collagen (Collagen I) [2] | Effect of increasing the content of HA in the fibroblasts [3] | increase in the content of hyaluronic acid (HA) [3]
CNC(=O)[C@H](CCCCN)NC(=O)[C@H](Cc1c[nH]cn1)NC(=O)CNC(=O)CCCCCCNC(=O)[C@H](CCCCN)NC(=O)[C@H](Cc1c[nH]cn1)NC(=O)CNC(C)=O [compound 6] (Ac-GHK[Ahp]GHK-NHMe) | 1070.92 | significant increase | 44.54 | significant increase | – | –
CNC(=O)[C@H](CCCCN)NC(=O)[C@H](Cc1c[nH]cn1)NC(=O)CNC(=O)CCNC(=O)CCNC(=O)[C@H](CCCCN)NC(=O)[C@H](Cc1c[nH]cn1)NC(=O)CNC(C)=O [compound 21] (Ac-GHK[βAla][βAla]GHK-NHMe) | 1160.14 | significant increase | – | – | 2423.11 | significant increase
CNC(=O)[C@H](CCCCN)NC(=O)[C@H](Cc1c[nH]cn1)NC(=O)CNC(=O)[C@H](C)NC(=O)[C@H](C)NC(=O)[C@H](C)NC(=O)[C@H](CCCCN)NC(=O)[C@H](Cc1c[nH]cn1)NC(=O)CNC(C)=O [compound 23] (Ac-GHKAAAGHK-NHMe) | 1097.64 | significant increase | 46.06 | significant increase | 2533.64 | significant increase
CNC(=O)CNC(=O)[C@H](Cc1c[nH]cn1)NC(=O)[C@H](CCCCN)NC(=O)CCNC(=O)CCNC(C)=O [compound 76] (Ac-[βAla][βAla]KHG-NHMe) | 1061.55 | significant increase | 47.05 | significant increase | 2607.31 | significant increase
CNC(=O)CNC(=O)[C@H](Cc1c[nH]cn1)NC(=O)[C@H](CCCCN)NC(=O)CCCCCCNC(C)=O [compound 77] (Ac-[Ahp]KHG-NHMe) | 1093.49 | significant increase | 89.94 | significant increase | 3493 | significant increase
CCCCCCCCCCCCCCCC(=O)NCCCCCCC(=O)N[C@@H](CCCCN)C(=O)N[C@@H](Cc1c[nH]cn1)C(=O)NCC(=O)O [compound 224] ({Palmitoyl-Ahp}-Lys-His-Gly-OH) | 932.65 | significant increase | 56.19 | significant increase | – | –
CCCCCCCCCCCCCCCC(=O)N[C@@H](CCCC[N+](C)(C)C)C(=O)N[C@@H](C)C(=O)N[C@@H](C)C(=O)N[C@@H](C)C(=O)NCC(=O)N[C@@H](Cc1c[nH]cn1)C(=O)N[C@@H](CCCCN)C(=O)O [compound 234] (Palmitoyl-[Lys(Me3)]AAAGHK-OH) | 900.83 | significant increase | 49.53 | significant increase | 2356.91 | significant increase
NCCCC[C@H](NC(=O)CCCCCCNC(=O)CCCC[C@@H]1SC[C@@H]2NC(=O)N[C@@H]21)C(=O)N[C@@H](Cc1c[nH]cn1)C(=O)NCC(N)=O [compound 242] ({Biotin-Ahp}-Lys-His-Gly-NH2) | 1159.72 | significant increase | 70.24 | significant increase | – | –
C[N+](C)(C)CCCC[C@H](NC(=O)CCCC[C@@H]1SC[C@@H]2NC(=O)N[C@@H]21)C(=O)NCCCCCCC(=O)NCC(=O)N[C@@H](Cc1c[nH]cn1)C(=O)N[C@@H](CCCCNC(=O)[C@@H]1CCCN1)C(N)=O [compound 265] (Biotin-[Lys(Me3)][Ahp]GHK(Pro)-NH2) | 1008.26 | significant increase | 56.34 | significant increase | – | –
CNC(=O)CNC(=O)[C@H](Cc1c[nH]cn1)NC(=O)[C@H](CCCCN)NC(=O)[C@@H]1CCCN1C(=O)[C@@H]1CCCN1C(=O)[C@@H]1CCCN1C(C)=O [compound 286] (Ac-PPPKHG-NHMe) | 1096.59 | significant increase | 53.24 | significant increase | 2791.21 | significant increase
CCCCCCCCCCCCCCCC(=O)N1CCC[C@H]1C(=O)N1CCC[C@H]1C(=O)N1CCC[C@H]1C(=O)NCC(=O)N[C@@H](Cc1c[nH]cn1)C(=O)N[C@@H](CCCCN)C(=O)O [compound 294] (Palmitoyl-PPPGHK-OH) | 1037.26 | significant increase | 91.47 | significant increase | 1761.46 | significant increase
NCCCC[C@H](NC(=O)[C@H](Cc1c[nH]cn1)NC(=O)CNC(=O)[C@@H]1CCCN1C(=O)[C@@H]1CCCN1C(=O)[C@@H]1CCCN1C(=O)CCCC[C@@H]1SC[C@@H]2NC(=O)N[C@@H]21)C(N)=O [compound 296] (Biotin-PPPGHK-NH2) | 930.98 | significant increase | 88.1 | significant increase | 1686.42 | significant increase
C[C@H](NC(=O)[C@H](Cc1ccc(Cl)c(Cl)c1)NC(=O)CCCC[C@@H]1SC[C@@H]2NC(=O)N[C@@H]21)C(=O)N[C@@H](CCCCN)C(=O)N[C@@H](Cc1c[nH]cn1)C(=O)NCC(=O)N[C@@H](CCCC[N+](C)(C)C)C(N)=O [compound 419] (Biotin-[Phe(3,4-Cl2)]AKHG[Lys(Me3)]-NH2) | 1015.58 | significant increase | 109.96 | significant increase | – | –
CCCCCCCCCCCCCCCC(=O)N[C@@H](CCCC[N+](C)(C)C)C(=O)NCC(=O)N[C@@H](Cc1c[nH]cn1)C(=O)N[C@@H](CCCCN)C(=O)N[C@@H](C)C(=O)N[C@@H](Cc1ccc(C)cc1)C(=O)O [compound 424] (Palmitoyl-[Lys(Me3)]GHKA[Phe(4-Me)]-OH) | 897.36 | significant increase | 97.9 | significant increase | – | –

Source: EP4786485A1, “STRAIGHT CHAIN PEPTIDE COMPOUND AND USE THEREOF” (Shenzhen Zhongge Biological Technology Co., Ltd., priority 2023, dated 2026)
